Measurements as given in US20090005361A1, “Combination of Organic Compounds” (priority 2006, published 2009).

What was measured:
Type in all cases: biochemical
dog renin = molecular target: T1, dog renin (Canis lupus familiaris, UniProt Q6DYE7); test: renin inhibition, species specificity (dog renin); conditions: stated in words, compared with human renin
T1 sequence (Q6DYE7 66-403): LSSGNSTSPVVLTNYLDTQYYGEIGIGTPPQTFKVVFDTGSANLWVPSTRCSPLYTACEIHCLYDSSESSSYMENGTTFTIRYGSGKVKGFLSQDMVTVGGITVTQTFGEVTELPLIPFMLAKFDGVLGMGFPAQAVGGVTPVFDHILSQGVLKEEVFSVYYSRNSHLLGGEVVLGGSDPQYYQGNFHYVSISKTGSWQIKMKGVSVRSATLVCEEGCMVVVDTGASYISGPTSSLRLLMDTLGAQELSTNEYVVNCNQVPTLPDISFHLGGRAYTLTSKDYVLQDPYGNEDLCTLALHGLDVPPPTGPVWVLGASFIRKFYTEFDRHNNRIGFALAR

mouse renin = test: renin inhibition, species specificity (mouse renin); conditions: stated in words, compared with human renin
rat renin = molecular target: T2, rat renin (Rattus norvegicus, UniProt P08424); test: renin inhibition, species specificity (rat renin); conditions: relative potency loss against rat renin
T2 sequence (P08424 65-402): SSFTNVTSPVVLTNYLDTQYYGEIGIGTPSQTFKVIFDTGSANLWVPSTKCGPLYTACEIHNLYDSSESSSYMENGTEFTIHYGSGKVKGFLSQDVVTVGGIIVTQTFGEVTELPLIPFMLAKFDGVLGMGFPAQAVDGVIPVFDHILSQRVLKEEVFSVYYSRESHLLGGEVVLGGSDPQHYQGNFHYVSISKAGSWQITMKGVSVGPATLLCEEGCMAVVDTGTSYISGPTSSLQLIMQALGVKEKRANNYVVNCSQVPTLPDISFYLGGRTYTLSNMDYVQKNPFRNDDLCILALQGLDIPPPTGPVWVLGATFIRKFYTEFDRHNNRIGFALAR

COCCCOc1cc(C[C@@H](C[C@H](N)[C@@H](O)C[C@H](C(=O)NCC(C)(C)C(N)=O)C(C)C)C(C)C)ccc1OC [aliskiren, 2(S),4(S),5(S),7(S)-N-(3-amino-2,2-dimethyl-3-oxopropyl)-2,7-di(1-methylethyl)-4-hydroxy-5-amino-8-[4-methoxy-3-(3-methoxy-propoxy)phenyl]-octanamide]
potency against dog renin (dog renin): reasonable potency
potency against mouse renin (mouse renin): reasonable potency
weaker as a rat renin inhibitor (rat renin): 1-2 orders of magnitude
